Measurements as given in patent US5919374A, “Method of disinfecting water with iodine species” (Iosolutions Incorporated, priority 1997, dated 1999).
Like-named read-outs stand apart in the source and are kept apart here.

Experiments:
[1] = Concentration of iodine species in water leaving the crystalline iodine generators; type: physicochemical; settings: pH 6-8, flow about 200 ml/minute
Experimental: Artesian water is fed through inlet conduit 8 past shut-off valve 10 through preconditioner 12 at a flow rate of not less than 2 l. per minute and not more than about 50 l. per minute preferably on average about 10 l. per minute at a pH 6-8, […] Main flow water passes through conduit 14 where some of the main flow is diverted to iodine generator assembly 15 through conduit 16 at a flow rate of about 200 ml/minute. The rest of the main flow flows through flow restrictor disk 20 such that an absolute pressure drop of about 2 psi is generated across flow restrictor disk 20. Flow restrictor 20 governs the rate of flow of diverted main flow which ultimately reaches iodine generator assembly 15. The main flow now proceeds through flow switch 22, such that, at a pre-set flow rate exceeding 2 l per minute, the flow switch 22 generates an electrical impulse which is fed to dual action solenoid valve 24. Such an impulse is continuous and causes solenoid valve 24 to open and remain so, as long as the flow rate is maintained above 2 l per minute. The rest of the main flow continues through conduit 14 uninterrupted until iodine liquor is blended back into the main flow at iodine species liquor injection port 44. […]

E. coli = settings: cited from earlier work
[2] = tested on: E. coli fecal streptococci; settings: cited from earlier work
bacteria = settings: pHs 5-7; cited from earlier work
chickens [3] = settings: cited from earlier work
[4] = crystalline iodine in water; cited from earlier work
chickens [5] = assay: Safe consumption of residual iodine by chickens
viruses = settings: higher pHs, e.g. 7-10; cited from earlier work
[6] = above pH 8, especially in the presence of dissolved iodides; Chang (1); cited from earlier work

Compound | concentration of iodine species concentrate ([1]; first iodine generator, about 20° C.) | concentration of resultant (saturated) iodine liquor ([1]; second iodine generator, about 28° C.) | % Kill (E. coli) [%] | concentration by which E coli is effectively killed (E. coli) | % Kill ([2]; Black et al., 1968, 18 C., contact time 1 min, 0.5 ppm I2) [%] | % Kill ([2]; Ellis et al., 1989, 20 C., contact time 30 min, avg. 4 ppm I2) [%] | antibacterial action (bacteria) | LD50 (chickens [3]) | solubility in water versus temperature [4] | concentration of residual iodine chickens could safely consume (chickens [5]) | virucidal action (viruses) | decomposition to iodide and iodate ions [6]
II [iodine] | 200-240 ppm | 280-320 ppm | 99.99 | 1-10 ppm | 99.99 | 99.99 | exhibits antibacterial action | about 625 ppm | directly proportional to the temperature of the water | about 2 ppm | – | –
OI [HOI, hypoiodous acid] | – | – | – | – | – | – | – | – | – | – | efficient virucide | decomposes slowly
